Patent US20100216751A1 (priority 2007, published 2010)

Assay: Pharmacokinetic evaluation of liquid bevirimat dosage forms, oral gavage, male Cynomolgus monkeys
Settings: male, cynomolgus monkey, in vivo, po; for concentration at 72 hr: BLOQ=below 50 ng/mL; for AUC: AUCall
Experimental: Six male Cynomolgus monkeys having an initial body weight of about 3.5 to about 4.5 kg are allowed 7 days to acclimate to their individual housing units. Monkeys are supplied with water and a commercial diet ad libitum prior to the study initiation. Food is withheld from the monkeys for a minimum of twelve hours before the study and during the study until four hours postdose when food is returned. Water is supplied ad libitum.
Test formulations are administered to the monkeys at time 0 on appropriate days. Test formulations will be dosed orally via oral gavage or intravenously.
Samples are drawn at the frequencies indicated below. Each blood sample (0.5 mL) is collected from the monkey's saphenous vein via a butterfly catheter and placed into a chilled polypropylene tube containing sodium heparin as the anticoagulant. Blood samples are centrifuged at a temperature of 4° C. at a speed of 3,000 rpm for 15 minutes. All samples are maintained chilled throughout processing. Plasma is collected after centrifugation, pipetted into a 2-mL polypropylene microtube, and frozen on dry-ice pending analytical evaluation.

[1] = 50 mg FAE/monkey, Plasma concentration, 12.5 mg FAE/mL in 10% HPβCD, 50 mg FAE/monkey oral gavage, monkeys 186,116,120,AVG
[2] = 50 mg FAE/monkey, Plasma concentration, 12.5 mg FAE/mL in 15% EtOH:0.5% TPGS:15% PG:5% Glycerin, 0.2% Povidone K90, 50 mg FAE/monkey oral gavage, monkeys 117,118,119,AVG
[3] = 50 mg FAE/monkey, Plasma concentration, 25 mg/mL in 30% EtOH:1% TPGS:30% PG:10% Glycerin, 50 mg FAE/monkey oral gavage, monkeys 117,118,119,AVG
[4] = 50 mg FAE/monkey, Plasma concentration, 50 mg FAE/mL in 40% EtOH:40% PG:20% Glycerol, 50 mg FAE/monkey oral gavage, monkeys 117,118,119,AVG
[5] = 50 mg, 12.5 mg FAE/mL in 10% HPβCD, 50 mg FAE/monkey oral gavage, monkeys 186,116,120,AVG
[6] = 50 mg, 12.5 mg FAE/mL in 15% EtOH:0.5% TPGS:15% PG:5% Glycerin, 0.2% Povidone K90, 50 mg FAE/monkey oral gavage, monkeys 117,118,119,AVG
[7] = 50 mg, 12.5 mg FAE/mL in 40% PG, 20% Glycerin, 0.25% Tween80, 0.2% Povidone K15, 50 mg FAE oral gavage, monkeys 186,116,120,AVG

Question: What does the source list for `C=C(C)[C@@H]1CC[C@]2(C(=O)O)CC[C@]3(C)[C@H](CC[C@@H]4[C@@]5(C)CC[C@H](OC(=O)CC(C)(C)C(=O)O)C(C)(C)[C@@H]5CC[C@]43C)[C@@H]12` [Bevirimat, 3-O-(3′,3′-dimethylsuccinyl)betulinic acid]?
Answer: concentration at 2 hr [1]: 59200 ng/mL; concentration at 2 hr [2]: 51300 ng/mL; concentration at 2 hr [3]: 56700 ng/mL; concentration at 2 hr [4]: 25800 ng/mL; concentration at 2 hr (50 mg FAE/monkey, Plasma concentration, 50 mg FAE/mL in 40% PG:20% Glycerin:1% TPGS:5% Tween 80 in SWFI, 50 mg FAE/monkey oral gavage, monkeys 117,118,119,AVG): 17900 ng/mL; concentration at 4 hr [1]: 35000 ng/mL; concentration at 4 hr [2]: 33100 ng/mL; concentration at 6 hr [1]: 20700 ng/mL; concentration at 6 hr [2]: 23100 ng/mL; concentration at 8 hr (50 mg FAE/monkey, Plasma concentration, 8.0 hr, 12.5 mg FAE/mL in 10% HPβCD, 50 mg FAE/monkey oral gavage, monkeys 186,116,120,AVG): 13000 ng/mL; concentration at 24 hr (50 mg FAE/monkey, Plasma concentration, 24 hr, 12.5 mg FAE/mL in 10% HPβCD, 50 mg FAE/monkey oral gavage, monkeys 186,116,120,AVG): 1560 ng/mL; concentration at 72 hr [1]: 120 ng/mL; concentration at 72 hr (50 mg FAE/monkey, Plasma concentration, 12.5 mg FAE/mL in 15% EtOH:0.5% TPGS:15% PG:5% Glycerin, 50 mg FAE/monkey oral gavage, monkeys 117,118,119,AVG): 233 ng/mL; concentration at 72 hr [3]: 69.3 ng/mL; concentration at 72 hr [4]: 76 ng/mL; AUC [5]: 348 µg·h/mL; AUC [6]: 488 µg·h/mL; AUC [7]: 212 µg·h/mL; Cmax [5]: 59200 ng/mL; Cmax [6]: 51300 ng/mL; Cmax (50 mg, 12.5 mg FAE/mL in 15% Ethanol, 30% PG, 10% Glycerin, 50 mg FAE oral gavage, monkeys 117,118,119,AVG): 64100 ng/mL; Cmax [7]: 42800 ng/mL; Cmax (50 mg, 12.5 mg FAE/mL in 40% PG, 20% Glycerin, 1% TPGS, 0.25% Tween80, 0.2% Povidone K15, 50 mg FAE/monkey oral gavage, monkeys 117,118,119,AVG): 93300 ng/mL; Cmax (50 mg, 50 mg FAE/mL in 40% EtOH:40% PG:20% Glycerol, 50 mg FAE/monkey oral gavage, monkeys 117,118,119,AVG): 25800 ng/mL; Cmax (50 mg, 50 mg/monkey, PG/glycerin/Vitamin ETPGS/Tween80/Plasdone C15 formulation, AVG): 62400 ng/mL; Cmax (50 mg, 50 mg/monkey, PG/glycerin/Vitamin ETPGS/Tween80/Plasdone C15 formulation, individual monkey): 55100 ng/mL; Cmax (50 mg, 50 mg/monkey, PG/glycerin/Vitamin ETPGS/ethanol formulation, AVG): 60100 ng/mL; Cmax (50 mg, 50 mg/monkey, PG/glycerin/Vitamin ETPGS/ethanol formulation, individual monkey): 58900 ng/mL; half-life (50 mg, t1/2, 12.5 mg FAE/mL in 10% HPβCD, 50 mg FAE/monkey oral gavage, monkeys 186,116,120,AVG): 9.9 h; half-life (50 mg, t1/2, 12.5 mg FAE/mL in 15% EtOH:0.5% TPGS:15% PG:5% Glycerin, 50 mg FAE/monkey oral gavage, monkeys 117,118,119,AVG): 12 h; half-life (50 mg, t1/2, 12.5 mg FAE/mL in 15% EtOH:0.5% TPGS:15% PG:5% Glycerin, 0.2% Povidone K90, 50 mg FAE/monkey oral gavage, monkeys 117,118,119,AVG): 12.2 h; half-life (50 mg, t1/2, 12.5 mg FAE/mL in 15% Ethanol, 30% PG, 10% Glycerin, 50 mg FAE oral gavage, monkeys 117,118,119,AVG): 8.9 h; half-life (50 mg, t1/2, 12.5 mg FAE/mL in 40% PG, 20% Glycerin, 0.25% Tween80, 0.2% Povidone K15, 50 mg FAE oral gavage, monkeys 186,116,120,AVG): 8 h; half-life (50 mg, t1/2, 12.5 mg FAE/mL in 40% PG, 20% Glycerin, 1% TPGS, 0.25% Tween80, 50 mg FAE/monkey oral gavage, monkeys 186,116,120,AVG): 9.9 h; half-life (50 mg, t1/2, 12.5 mg FAE/mL in 40% PG, 20% Glycerin, 1% TPGS, 0.25% Tween80, 0.2% Povidone K15, 50 mg FAE/monkey oral gavage, monkeys 117,118,119,AVG): 10.4 h; half-life (50 mg, t1/2, 25 mg/mL in 30% EtOH:1% TPGS:30% PG:10% Glycerin, 50 mg FAE/monkey oral gavage, monkeys 117,118,119,AVG): 10.6 h; half-life (50 mg, t1/2, 50 mg FAE/mL in 40% EtOH:40% PG:20% Glycerol, 50 mg FAE/monkey oral gavage, monkeys 117,118,119,AVG): 9.8 h; half-life (50 mg, t1/2, 50 mg FAE/mL in 40% PG:20% Glycerin:1% TPGS:5% Tween 80 in SWFI, 50 mg FAE/monkey oral gavage, monkeys 117,118,119,AVG): 11.8 h; half-life (50 mg, t1/2, 10% HPβCD, 50 mg FAE/monkey oral gavage, monkeys 117,118,119,AVG): 10 h; half-life (50 mg, t1/2, oral, 50 mg/monkey, PG/glycerin/Vitamin ETPGS/Tween80/Plasdone C15 formulation, AVG): 6.4 h; half-life (50 mg, t1/2, oral, 50 mg/monkey, PG/glycerin/Vitamin ETPGS/Tween80/Plasdone C15 formulation, individual monkey): 8.6 h; half-life (50 mg, t1/2, oral, 50 mg/monkey, PG/glycerin/Vitamin ETPGS/ethanol formulation, AVG): 6.9 h; half-life (50 mg, t1/2, oral, 50 mg/monkey, PG/glycerin/Vitamin ETPGS/ethanol formulation, individual monkey): 6.2 h; Tmax (50 mg, tmax, 12.5 mg FAE/mL in 40% PG, 20% Glycerin, 1% TPGS, 0.25% Tween80, 0.2% NaCMC, 50 mg FAE/monkey oral gavage, monkeys 117,118,119,AVG): 1 h; concentration at 0.25 h (50 mg/monkey, Plasma Concentration, PG/glycerin/Vitamin ETPGS/Tween80/Plasdone C15 formulation, AVG): 64.6 ng/mL; concentration at 0.25 h (50 mg/monkey, Plasma Concentration, PG/glycerin/Vitamin ETPGS/Tween80/Plasdone C15 formulation, individual monkey): 69.8 ng/mL; concentration at 0.5 h (50 mg/monkey, Plasma Concentration, PG/glycerin/Vitamin ETPGS/Tween80/Plasdone C15 formulation, 0.50 hr, AVG): 3550 ng/mL
